Like-named read-outs stand apart in the source and are kept apart here.
Assays:
[1] = molecular target: T1, HCV NS5B RdRp genotype 1b (Hepatitis C virus genotype 1b, UniProt Q9WMX2); assay: Standard HCV NS5B RdRp enzyme assay; assay type: biochemical; conditions: standard method
T1 construct: The protein was expressed with an 18 amino acid C-terminal truncation to enhance the solubility; made in house; host or cells: E. coli BL21 (DE3), pET21a
Procedure: HCVNS5B RdRp cloning, expression, and purification. The cDNA encoding the NS5B protein of HCV, genotype 1b, was cloned into the pET21a expression vector. The protein was expressed with an 18 amino acid C-terminal truncation to enhance the solubility. The E. coli competent cell line BL21 (DE3) was used for expression of the protein. Cultures were grown at 37° C. for ˜4 hours until the cultures reached an optical density of 2.0 at 600 nm. The cultures were cooled to 20° C. and induced with 1 mM IPTG. Fresh ampicillin was added to a final concentration of 50 μg/ml and the cells were grown overnight at 20° C.
Cell pellets (3 L) were lysed for purification to yield 15-24 mgs of purified NS5B. The lysis buffer consisted of 20 mM Tris-HCl, pH 7.4, 500 mM NaCl, 0.5% triton X-100, 1 mM DTT, 1 mM EDTA, 20% glycerol, 0.5 mg/ml lysozyme, 10 mM MgCl2, 15 ug/ml deoxyribonuclease I, and Complete TM protease inhibitor tablets (Roche). After addition of the lysis buffer, frozen cell pellets were resuspended using a tissue homogenizer. To reduce the viscosity of the sample, aliquots of the lysate were sonicated on ice using a microtip attached to a Branson sonicator. The sonicated lysate was centrifuged at 100,000×g for 1 hr at 4° C. and filtered through a 0.2 μm filter unit (Corning).
The protein was purified using three sequential chromatography steps: Heparin sepharose CL-6B, polyU sepharose 4B, and Hitrap SP sepharose (Pharmacia). The chromatography buffers were identical to the lysis buffer but contained no lysozyme, deoxyribonuclease I, MgCl2 or protease inhibitor and the NaCl concentration of the buffer was adjusted according to the requirements for charging the protein onto the column. Each column was eluted with a NaCl gradient which varied in length from 5-50 column volumes depending on the column type. After the final chromatography step, the resulting purity of the enzyme is >90% based on SDS-PAGE analysis. The enzyme was aliquoted and stored at −80° C.
Standard HCV NS5B RdRp enzyme assay. HCV RdRp genotype Ib assays were run in a final volume of 60 μl in 96 well plates (Costar 3912). The assay buffer is composed of 20 mM Hepes, pH 7.5, 2.5 mM KCl, 2.5 mM MgCl2, 1 mM DTT, 1.6 U RNAse inhibitor (Promega N2515), 0.1 mg/ml BSA (Promega R3961), and 2% glycerol. All compounds were serially diluted (3-fold) in DMSO and diluted further in water such that the final concentration of DMSO in the assay was 2%. HCV RdRp genotype 1b enzyme was used at a final concentration of 28 nM. A polyA template was used at 6 nM, and a biotinylated oligo-dT12 primer was used at 180 nM final concentration. Template was obtained commercially (Amersham 27-4110). Biotinylated primer was prepared by Sigma Genosys. ^3H-UTP was used at 0.6 μCi (0.29 μM total UTP). Reactions were initiated by the addition of enzyme, incubated at 30° C. for 60 min, and stopped by adding 25 μl of 50 mM EDTA containing SPA beads (4 μg/μl, Amersham RPNQ 0007). Plates were read on a Packard Top Count NXT after >1 hr incubation at room temperature.
The IC50 values for compounds were determined using seven different [I]. IC50 values were calculated from the inhibition using the formula y=A+((B−A)/(1+((C/x)^D))). FRET Assay Preparation. To perform the HCV FRET screening assay, 96-well cell culture plates were used. The FRET peptide (Anaspec, Inc.) (Taliani et al., Anal. Biochem. 240:60-67 (1996), hereby incorporated by reference in its entirety) contains a fluorescence donor, EDANS, near one end of the peptide and an acceptor, DABCYL, near the other end. The fluorescence of the peptide is quenched by […] resonance energy transfer (RET) between the donor and the acceptor, but as the NS3 protease cleaves the peptide the products are released from RET quenching and the fluorescence of the donor becomes apparent. […]

HCV replicon = HCV replicon luciferase assay; assay type: cell-based, Hepatitis C virus
Procedure: To prepare plates, HCV replicon cells, with or without a Renilla luciferase reporter gene, were trypsinized and placed into each well of a 96-well plate with titrated test compounds added in columns 3 through 12; columns 1 and 2 contained a control compound (HCV protease inhibitor), and the bottom row contained cells without compound. The plates were then placed in a CO2 incubator at 37 degrees C.
Assays. Subsequent to addition of the test compounds described above (FRET Assay Preparation), at various times the plate was removed and Alamar blue solution (Trek Diagnostics, #00-100) was added per well as a measure of cellular toxicity. After reading in a Cytoflour 4000 instrument (PE Biosystems), plates were rinsed with PBS and then used for FRET assay by the addition of 30 ul of the FRET peptide assay reagent described above (FRET Assay Preparation) per well. The plate was then placed into the Cytoflour 4000 instrument which had been set to 340 excite/490 emission, automatic mode for 20 cycles and the plate read in a kinetic mode. Typically, the signal to noise using an endpoint analysis after the reads was at least three-fold. Alternatively, after Alamar blue reading, plates were rinsed with PBS, 50 ul of DMEM (high glucose) without phenol red was added and plates were then used for luciferase assay using the Promega Dual-Glo Luciferase Assay System.
Compound analysis was determined by quantification of the relative HCV replicon inhibition and the relative cytotoxicity values. To calculate cytoxicity values, the average Alamar Blue fluorescence signals from the control wells were set as 100% non-toxic. The individual signals in each of the compound test wells were then divided by the average control signal and multiplied by 100% to determine […]. To calculate the HCV replicon inhibition values, an average background value was obtained from the two wells containing the highest amount of HCV protease inhibitor at the end of the assay period. These numbers were similar to those obtained from naïve Huh-7 cells.
The background numbers were then subtracted from the average signal obtained from the control wells and this number was used as 100% activity. The individual signals in each of the compound test wells were then divided by the averaged control values after background subtraction and multiplied by 100% to determine percent activity. EC50 values for a protease inhibitor titration were calculated as the concentration which caused a 50% reduction in FRET or luciferase activity. The two numbers generated for the compound plate, percent cytoxicity and percent activity were used to determine compounds of interest for further analysis.

[2] = Hepatitis C virus, luciferase method, read-out: EC50

T1 sequence (Q9WMX2 2420-2992): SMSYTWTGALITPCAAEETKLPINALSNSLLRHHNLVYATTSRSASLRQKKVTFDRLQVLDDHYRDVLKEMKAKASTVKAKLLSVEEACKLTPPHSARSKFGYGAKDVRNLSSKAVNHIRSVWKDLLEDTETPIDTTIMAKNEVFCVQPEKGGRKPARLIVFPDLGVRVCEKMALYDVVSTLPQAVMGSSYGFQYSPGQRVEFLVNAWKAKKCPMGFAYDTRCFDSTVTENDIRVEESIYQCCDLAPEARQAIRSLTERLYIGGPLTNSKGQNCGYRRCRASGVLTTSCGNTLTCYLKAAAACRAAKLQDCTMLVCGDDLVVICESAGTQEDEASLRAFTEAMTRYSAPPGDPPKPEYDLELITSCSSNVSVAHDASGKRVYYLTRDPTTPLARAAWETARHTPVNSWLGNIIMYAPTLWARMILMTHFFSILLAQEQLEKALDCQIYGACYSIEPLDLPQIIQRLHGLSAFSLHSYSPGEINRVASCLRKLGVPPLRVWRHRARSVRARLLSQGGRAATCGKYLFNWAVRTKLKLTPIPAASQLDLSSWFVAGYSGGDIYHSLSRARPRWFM

O=C(O)c1ccc2c(C3CCCCC3)c3n(c2c1)CC(C(=O)N1CCN(c2ccncc2)CC1)Cc1ccccc1-3 (stereo not shown)
IC50 [1]: 100 to 1000 nM | EC50 (HCV replicon; [2]): 100 to 1000 nM

COC(=O)c1ccc2c(C3CCCCC3)c3n(c2c1)Cc1ccccc1-3 [Example 6, Methyl 11-cyclohexyl-6H-isoindolo[2,1-a]indole-3-carboxylate]
IC50 [1]: > 1000 nM | EC50 (HCV replicon; [2]): > 10000 nM

COC(=O)c1ccc2c(C3CCCCC3)c3n(c2c1)CC(=O)Nc1cccnc1-3 [Example 14, Methyl 13-cyclohexyl-6,7-dihydro-6-oxo-5H-pyrido[3′,2′:5,6][1,4]diazepino[1,7-a]indole-10-carboxylate]
IC50 [1]: > 1000 nM | EC50 (HCV replicon; [2]): > 10000 nM

O=C(O)/C=C/c1ccc(NC(=O)C2(NC(=O)c3ccc4c(C5CCCCC5)c5n(c4c3)CCOc3cccnc3-5)CCCC2)cc1
IC50 [1]: 100 to 1000 nM | EC50 (HCV replicon; [2]): < 100 nM

COC1c2ccccc2-c2c(C3CCCCC3)c3ccc(C(=O)O)cc3n21 (stereo not shown)
IC50 [1]: > 1000 nM | EC50 (HCV replicon; [2]): > 10000 nM

O=C(O)c1ccc2c(C3CCCCC3)c3n(c2c1)CC(C(=O)NCCO)Cc1ccccc1-3 (stereo not shown)
IC50 [1]: 100 to 1000 nM | EC50 (HCV replicon; [2]): 100 to 1000 nM

O=C(O)/C=C/c1ccc(NC(=O)C2(NC(=O)c3ccc4c(C5CCCCC5)c5n(c4c3)CCOc3ccccc3-5)CCCC2)cc1
IC50 [1]: 100 to 1000 nM | EC50 (HCV replicon; [2]): < 100 nM

CN(C)S(=O)(=O)NC(=O)c1ccc2c(C3CCCCC3)c3n(c2c1)CC(C(=O)N1CCCC(O)C1)Cc1ccccc1-3 (stereo not shown)
IC50 [1]: 100 to 1000 nM | EC50 (HCV replicon; [2]): 100 to 1000 nM

CNC(=O)C1Cc2ccccc2-c2c(C3CCCCC3)c3ccc(C(=O)O)cc3n2C1 (stereo not shown)
IC50 [1]: 100 to 1000 nM | EC50 (HCV replicon; [2]): 100 to 1000 nM

CN(C)S(=O)(=O)NC(=O)c1ccc2c(C3CCCCC3)c3n(c2c1)CC(C(=O)N1CCOCC1)=Cc1ccccc1-3
IC50 [1]: 100 to 1000 nM | EC50 (HCV replicon; Hepatitis C virus): < 100 nM

COC(=O)c1ccc2c(C3CCCCC3)c3n(c2c1)CC(C(=O)N1CCN(c2ccncc2)CC1)=Cc1ccccc1-3
IC50 [1]: > 1000 nM | EC50 (HCV replicon; [2]): 1000 to 10000 nM

O=C(O)/C=C/c1ccc(NC(=O)C2(NC(=O)c3ccc4c(C5CCCCC5)c5n(c4c3)CCCCNc3ccccc3-5)CCCC2)cc1
IC50 [1]: > 1000 nM | EC50 (HCV replicon; [2]): < 100 nM

O=C1Cn2c(c(C3CCCCC3)c3ccc(C(=O)O)cc32)-c2ccccc2N1 [Example 21, 13-cyclohexyl-6,7-dihydro-6-oxo-5H-indolo[1,2-d][1,4]benzodiazepine-10-carboxylic acid]
IC50 [1]: 100 to 1000 nM | EC50 (HCV replicon; [2]): 100 to 1000 nM

O=C(O)c1ccc2c(C3CCCCC3)c3n(c2c1)CCCc1ncccc1-3
IC50 [1]: 100 to 1000 nM | EC50 (HCV replicon; [2]): 100 to 1000 nM

CC(C)(C)OC(=O)/C=C/c1ccc(NC(=O)C2(NC(=O)c3ccc4c(C5CCCCC5)c5n(c4c3)CC(=O)Nc3cccnc3-5)CCCC2)cc1
IC50 [1]: > 1000 nM | EC50 (HCV replicon; [2]): 100 to 1000 nM

O=C(O)c1ccc2c(C3CCCCC3)c3n(c2c1)CC(C(=O)N1CCOCC1)Cc1ccccc1-3 (stereo not shown) [drawing 115]
IC50 [1]: 100 to 1000 nM | EC50 (HCV replicon; luciferase method, read-out: EC50): 100 to 1000 nM

NC(=O)C1Cc2ccccc2-c2c(C3CCCCC3)c3ccc(C(=O)O)cc3n2C1 (stereo not shown)
IC50 [1]: 100 to 1000 nM | EC50 (HCV replicon; [2]): 100 to 1000 nM

O=C(O)c1ccc2c(C3CCCCC3)c3n(c2c1)C(O)c1ccccc1-3 (stereo not shown)
IC50 [1]: > 1000 nM | EC50 (HCV replicon; [2]): > 10000 nM

CN(C)S(=O)(=O)NC(=O)c1ccc2c(C3CCCCC3)c3n(c2c1)CC(C(=O)N1CCN(c2ccncc2)CC1)Cc1ccccc1-3 (stereo not shown)
IC50 [1]: 100 to 1000 nM | EC50 (HCV replicon; [2]): < 100 nM

O=C(O)c1ccc2c(C3CCCCC3)c3n(c2c1)CC(C(=O)N1CCC(O)CC1)Cc1ccccc1-3 (stereo not shown)
IC50 [1]: 100 to 1000 nM | EC50 (HCV replicon; [2]): 100 to 1000 nM

CN(C)C(=O)C1Cc2ccccc2-c2c(C3CCCCC3)c3ccc(C(=O)O)cc3n2C1 (stereo not shown)
IC50 [1]: 100 to 1000 nM | EC50 (HCV replicon; [2]): 100 to 1000 nM

O=C(O)CCCc1nc(C2(NC(=O)c3ccc4c(C5CCCCC5)c5n(c4c3)CC=Cc3ccccc3-5)CCCC2)no1 [Example 23, 3-[1-[[(13-cyclohexyl-7H-indolo[2,1-a][2]benzazepin-10-yl)carbonyl]amino]cyclopentyl]-1,2,4-oxadiazole-5-butanoic acid]
IC50 [1]: > 1000 nM | EC50 (HCV replicon; [2]): 100 to 1000 nM

O=C(O)c1ccc2c(C3CCCCC3)c3n(c2c1)CCCc1ccccc1-3 [Example 3, 13-cyclohexyl-6,7-dihydro-5H-indolo[2,1-a][2]benzazepine-10-carboxylic acid]
IC50 [1]: 100 to 1000 nM | EC50 (HCV replicon; [2]): 100 to 1000 nM
